Reference: ChEMBL document CHEMBL1134170, “Securiosides A and B, novel acylated triterpene bisdesmosides with selective cytotoxic activity against M-CSF-stimulated macrophages” (Bioorg Med Chem Lett, 2001)
Activity calls are given as the source filed them. The calls are words filed in the database; no cut-off is given here.

Key:
[1] = species: Ovis aries; assay: Ability to hemolyze sheep erythrocytes and induce change in macrophage morphology and DNA fragmentation at a concentration of 10 ug/mL; inactive; assay type: functional
[2] = species: Mus musculus; assay: Cytotoxic activity against M-CSF-stimulated macrophages (from male mice); assay type: functional

| SMILES | Hemolysis [1] | IC50 [2] |
| --- | --- | --- |
| COc1ccc(/C=C/C(=O)O[C@H]2[C@H](O)[C@@H](O[C@H]3O[C@H](C)[C@@H](O[C@H]4OCC(O[C@H]5O[C@H](CO)[C@@H](O)[C@@H](O)[C@H]5O)C(O[C@H]5O[C@H](CO)[C@H](O)[C@@H](O)[C@H]5O)[C@H]4O)[C@@H](O)[C@@H]3O)[C@@H](OC(=O)[C@]34CCC(C)(C)C[C@H]3C3=CC[C@@H]5[C@@]6(C)C[C@H](O)[C@H](O[C@@H]7O[C@@H](CO)[C@@H](O)[C@H](O)[C@@H]7O)[C@@](C)(C(=O)O)C6CC[C@@]5(C)[C@]3(CO)CC4)O[C@@H]2C)cc1OC (some centres undefined) [SECURIOSIDE B] | inactive | < 250 nM |
| COc1ccc(/C=C/C(=O)O[C@H]2[C@@H](O[C@H]3O[C@H](COC(C)=O)[C@H](O)[C@H](O)[C@H]3O)[C@@H](O[C@H]3O[C@H](C)[C@@H](O[C@H]4OC[C@H](O)[C@H](O)[C@H]4O)[C@@H](O)[C@@H]3O)[C@H](OC(=O)[C@]34CCC(C)(C)C[C@H]3C3=CC[C@@H]5[C@@]6(C)C[C@H](O)[C@H](O[C@@H]7O[C@@H](CO)[C@@H](O)[C@H](O)[C@@H]7O)[C@@](C)(C(=O)O)C6CC[C@@]5(C)[C@]3(CO)CC4)O[C@@H]2C)cc1OC (some centres undefined) [SECURIOSIDE A] | inactive | < 250 nM |
